The source of these data is patent US20260297081A1, “COMPOUNDS AND METHODS OF TREATING CANCERS” (Cullgen Inc., priority 2023, published 2026).

Where only a bound is given, the exact number is not on record here.

One test has as its system MCF7 cells. The experiment in a line: Anti-proliferation (viability) of MCF7 cells (Table 7, FIG. 2B). In kind it is cell-based. The following applies: Homo sapiens, MCF7, MCF7 cells, 3-6 days, 10-point serial dilution; read-out: GI IC50 in MCF-7.
The target of the next test is CDK4 (Homo sapiens, UniProt P11802+Q16531). The experiment in a line: HiBiT detection of HiBiT-tagged CDK4 protein level in MCF7 cells, 16 hours (Table 8). In kind it is cell-based. The arrangement: expressed in transfected cells; host or cells: MCF7. The following applies: MCF7 cells stably expressing HiBiT tagged target proteins; for activity at 0.01 µM: 10 nM, read-out: % CDK4 Relative Level (10 nM); for activity at 0.1 µM: 100 nM, read-out: % CDK4 Relative Level (100 nM). The procedure: HiBiT detection system quantitatively measures total amounts of HiBiT-tagged proteins using a luminescent based method. MCF7 cells stably expressing HiBiT tagged target proteins were treated with heterobifunctional compounds at indicated concentrations for 16 hours, then lysed with Nano-Glo HiBiT Lytic detection reagents.
Chain of CDK4 (P11802 whole entry): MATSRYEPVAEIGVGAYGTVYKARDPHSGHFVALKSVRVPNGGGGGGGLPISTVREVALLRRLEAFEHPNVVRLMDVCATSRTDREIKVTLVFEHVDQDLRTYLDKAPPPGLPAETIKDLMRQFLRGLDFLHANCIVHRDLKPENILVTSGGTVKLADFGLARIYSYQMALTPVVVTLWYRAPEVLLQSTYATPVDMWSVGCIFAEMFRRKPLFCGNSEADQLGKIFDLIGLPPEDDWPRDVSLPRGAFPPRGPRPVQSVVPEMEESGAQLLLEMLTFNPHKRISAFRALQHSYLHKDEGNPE
Chain of CDK4 (P24385 whole entry partner): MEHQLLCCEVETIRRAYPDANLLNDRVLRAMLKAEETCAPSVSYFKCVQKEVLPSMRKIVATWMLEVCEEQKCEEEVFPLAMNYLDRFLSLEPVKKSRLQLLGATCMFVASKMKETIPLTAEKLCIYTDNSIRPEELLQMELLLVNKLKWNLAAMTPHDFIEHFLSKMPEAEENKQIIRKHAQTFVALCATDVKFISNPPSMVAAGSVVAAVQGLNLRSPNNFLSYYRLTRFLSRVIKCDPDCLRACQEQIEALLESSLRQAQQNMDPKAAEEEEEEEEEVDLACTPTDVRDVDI
Chain of CDK4 (Q16531 2-1140 limits assumed): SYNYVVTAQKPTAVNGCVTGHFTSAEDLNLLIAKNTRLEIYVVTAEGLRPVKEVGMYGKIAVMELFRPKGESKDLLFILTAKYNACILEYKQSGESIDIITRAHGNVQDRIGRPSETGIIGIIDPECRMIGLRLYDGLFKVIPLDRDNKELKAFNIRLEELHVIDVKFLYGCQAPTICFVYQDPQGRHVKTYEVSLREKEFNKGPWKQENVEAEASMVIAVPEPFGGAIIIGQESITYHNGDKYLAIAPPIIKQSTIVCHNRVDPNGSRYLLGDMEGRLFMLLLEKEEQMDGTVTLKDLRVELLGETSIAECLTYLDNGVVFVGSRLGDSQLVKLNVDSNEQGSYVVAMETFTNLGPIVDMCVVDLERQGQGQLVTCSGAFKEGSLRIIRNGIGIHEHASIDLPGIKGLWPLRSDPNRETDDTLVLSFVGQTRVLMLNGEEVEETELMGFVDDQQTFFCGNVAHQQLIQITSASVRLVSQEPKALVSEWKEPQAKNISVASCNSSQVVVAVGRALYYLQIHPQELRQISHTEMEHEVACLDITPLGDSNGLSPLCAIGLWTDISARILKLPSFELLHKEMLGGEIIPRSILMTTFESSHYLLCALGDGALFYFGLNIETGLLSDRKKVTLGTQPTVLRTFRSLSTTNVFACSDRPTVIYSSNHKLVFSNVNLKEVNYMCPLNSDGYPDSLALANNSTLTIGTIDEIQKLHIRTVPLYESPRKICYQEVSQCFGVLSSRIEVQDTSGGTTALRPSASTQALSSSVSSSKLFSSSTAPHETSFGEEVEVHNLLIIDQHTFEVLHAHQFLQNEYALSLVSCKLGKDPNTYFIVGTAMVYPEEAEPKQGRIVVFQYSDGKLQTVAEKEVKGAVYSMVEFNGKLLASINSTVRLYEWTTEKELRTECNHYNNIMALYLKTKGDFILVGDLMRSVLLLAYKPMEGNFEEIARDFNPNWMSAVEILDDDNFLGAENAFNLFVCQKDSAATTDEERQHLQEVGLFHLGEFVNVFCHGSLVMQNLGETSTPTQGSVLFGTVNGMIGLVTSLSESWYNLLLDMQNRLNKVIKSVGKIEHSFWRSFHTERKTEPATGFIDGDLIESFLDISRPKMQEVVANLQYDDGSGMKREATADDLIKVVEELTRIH
Background: With HiBiT, luminescence reflects the tagged protein that the partner subunit can reach.

On to `CNc1ccc(C(=O)Nc2ccc(N(C)C)nn2)c(NCCCCC(=O)N2CCN(c3ccc(Nc4ncc5cc(C(=O)N(C)C)n(C6CCCC6)c5n4)nc3)CC2)n1` [CPD-618, 7-cyclopentyl-2-((5-(4-(5-((3-((6-(dimethylamino)pyridazin-3-yl)carbamoyl)-6-(methylamino)pyridin-2-yl)amino)pentanoyl)piperazin-1-yl)pyridin-2-yl)amino)-N,N-dimethyl-7H-pyrrolo[2,3-d]pyrimidine-6-carboxamide], for which, in the test with MCF7 cells, the IC50 was over 100 nM. Also, at CDK4, the activity at 0.01 µM is over 85% and the activity at 0.1 µM lay in the range of 55 to 85%.

For the compound `CNc1ccc(C(=O)Nc2ccc(N(C)C)nn2)c(NCCCCCCC(=O)N2CCN(c3ccc(Nc4ncc5cc(C(=O)N(C)C)n(C6CCCC6)c5n4)nc3)CC2)n1` [CPD-620, 7-cyclopentyl-2-((5-(4-(7-((3-((6-(dimethylamino)pyridazin-3-yl)carbamoyl)-6-(methylamino)pyridin-2-yl)amino)heptanoyl)piperazin-1-yl)pyridin-2-yl)amino)-N,N-dimethyl-7H-pyrrolo[2,3-d]pyrimidine-6-carboxamide], in the test on MCF7 cells, the concentration for half-maximal inhibition (IC50) is over 100 nM. Moreover, at CDK4, the activity at 0.01 µM is 55 to 85% and the activity at 0.1 µM lay in the range of 55 to 85%.

For `CNc1ccc(C(=O)Nc2ccc(N(C)C)nn2)c(NCCCCCCCC(=O)N2CCN(c3ccc(Nc4ncc5cc(C(=O)N(C)C)n(C6CCCC6)c5n4)nc3)CC2)n1` [CPD-621, 7-cyclopentyl-2-((5-(4-(8-((3-((6-(dimethylamino)pyridazin-3-yl)carbamoyl)-6-(methylamino)pyridin-2-yl)amino)octanoyl)piperazin-1-yl)pyridin-2-yl)amino)-N,N-dimethyl-7H-pyrrolo[2,3-d]pyrimidine-6-carboxamide], the IC50 with MCF7 cells was over 100 nM. Also, at CDK4, the activity at 0.01 µM was in the range of 55 to 85% and the activity at 0.1 µM lay in the range of 55 to 85%.

As for `CNc1ccc(C(=O)Nc2ccc(N(C)C)nn2)c(NCCOCCC(=O)N2CCN(c3ccc(Nc4ncc5cc(C(=O)N(C)C)n(C6CCCC6)c5n4)nc3)CC2)n1` [CPD-622, 7-cyclopentyl-2-((5-(4-(3-(2-((3-((6-(dimethylamino)pyridazin-3-yl)carbamoyl)-6-(methylamino)pyridin-2-yl)amino)ethoxy)propanoyl)piperazin-1-yl)pyridin-2-yl)amino)-N,N-dimethyl-7H-pyrrolo[2,3-d]pyrimidine-6-carboxamide], the IC50 in the test on MCF7 cells was over 100 nM. For the same compound, on CDK4, the activity at 0.01 µM was in the range of 55 to 85% and the activity at 0.1 µM was in the range of 55 to 85%.

`CNc1ccc(C(=O)Nc2ccc(N(C)C)nn2)c(NCCCNC(=O)CN2CCN(c3ccc(Nc4ncc5cc(C(=O)N(C)C)n(C6CCCC6)c5n4)nc3)CC2)n1` [CPD-625, 7-cyclopentyl-2-((5-(4-(2-((3-((3-((6-(dimethylamino)pyridazin-3-yl)carbamoyl)-6-(methylamino)pyridin-2-yl)amino)propyl)amino)-2-oxoethyl)piperazin-1-yl)pyridin-2-yl)amino)-N,N-dimethyl-7H-pyrrolo[2,3-d]pyrimidine-6-carboxamide]: the IC50 in the test with MCF7 cells was over 100 nM. At CDK4, the activity at 0.01 µM was in the range of 55 to 85% and the activity at 0.1 µM is 55 to 85%.

With `CNc1ccc(C(=O)Nc2ccc(N(C)C)nn2)c(NCCCCNC(=O)CN2CCN(c3ccc(Nc4ncc5cc(C(=O)N(C)C)n(C6CCCC6)c5n4)nc3)CC2)n1` [CPD-626, 7-cyclopentyl-2-((5-(4-(2-((4-((3-((6-(dimethylamino)pyridazin-3-yl)carbamoyl)-6-(methylamino)pyridin-2-yl)amino)butyl)amino)-2-oxoethyl)piperazin-1-yl)pyridin-2-yl)amino)-N,N-dimethyl-7H-pyrrolo[2,3-d]pyrimidine-6-carboxamide], the IC50 with MCF7 cells is over 100 nM. Further, at CDK4, the activity at 0.01 µM fell in the range of 55 to 85% and the activity at 0.1 µM fell in the range of 55 to 85%.

As to `CNc1ccc(C(=O)Nc2ccc(N(C)C)nn2)c(NCCCCCNC(=O)CN2CCN(c3ccc(Nc4ncc5cc(C(=O)N(C)C)n(C6CCCC6)c5n4)nc3)CC2)n1` [CPD-627, 7-cyclopentyl-2-((5-(4-(2-((5-((3-((6-(dimethylamino)pyridazin-3-yl)carbamoyl)-6-(methylamino)pyridin-2-yl)amino)pentyl)amino)-2-oxoethyl)piperazin-1-yl)pyridin-2-yl)amino)-N,N-dimethyl-7H-pyrrolo[2,3-d]pyrimidine-6-carboxamide], in the test with MCF7 cells, the IC50 was over 100 nM. On CDK4, the activity at 0.01 µM was 55 to 85% and the activity at 0.1 µM fell in the range of 55 to 85%.

Turning to `CNc1ccc(C(=O)Nc2ccc(N(C)C)nn2)c(NCCCCCCNC(=O)CN2CCN(c3ccc(Nc4ncc5cc(C(=O)N(C)C)n(C6CCCC6)c5n4)nc3)CC2)n1` [CPD-628, 7-cyclopentyl-2-((5-(4-(2-((6-((3-((6-(dimethylamino)pyridazin-3-yl)carbamoyl)-6-(methylamino)pyridin-2-yl)amino)hexyl)amino)-2-oxoethyl)piperazin-1-yl)pyridin-2-yl)amino)-N,N-dimethyl-7H-pyrrolo[2,3-d]pyrimidine-6-carboxamide], the half-maximal inhibitory concentration (IC50) in the test with MCF7 cells is over 100 nM. In addition, on CDK4, the activity at 0.01 µM is 55 to 85% and the activity at 0.1 µM fell in the range of 55 to 85%.

For the compound `CNc1ccc(C(=O)Nc2ccc(N(C)C)nn2)c(NCCCCCCCNC(=O)CN2CCN(c3ccc(Nc4ncc5cc(C(=O)N(C)C)n(C6CCCC6)c5n4)nc3)CC2)n1` [CPD-629, 7-cyclopentyl-2-((5-(4-(2-((7-((3-((6-(dimethylamino)pyridazin-3-yl)carbamoyl)-6-(methylamino)pyridin-2-yl)amino)heptyl)amino)-2-oxoethyl)piperazin-1-yl)pyridin-2-yl)amino)-N,N-dimethyl-7H-pyrrolo[2,3-d]pyrimidine-6-carboxamide], the half-inhibitory concentration (IC50) in the test with MCF7 cells is over 100 nM. At CDK4, the activity at 0.01 µM lay in the range of 55 to 85% and the activity at 0.1 µM fell in the range of 55 to 85%.

As to `CNc1ccc(C(=O)Nc2ccc(N(C)C)nn2)c(NCCCCCCCCNC(=O)CN2CCN(c3ccc(Nc4ncc5cc(C(=O)N(C)C)n(C6CCCC6)c5n4)nc3)CC2)n1` [CPD-630, 7-cyclopentyl-2-((5-(4-(2-((8-((3-((6-(dimethylamino)pyridazin-3-yl)carbamoyl)-6-(methylamino)pyridin-2-yl)amino)octyl)amino)-2-oxoethyl)piperazin-1-yl)pyridin-2-yl)amino)-N,N-dimethyl-7H-pyrrolo[2,3-d]pyrimidine-6-carboxamide], the IC50 with MCF7 cells was over 100 nM. For the same compound, on CDK4, the activity at 0.01 µM is 55 to 85% and the activity at 0.1 µM is 55 to 85%.

For `CNc1ccc(C(=O)Nc2ccc(N(C)C)nn2)c(NCCCC(=O)N2CCN(c3ccc(Nc4ncc5cc6n(c5n4)C4(CCCCC4)CNC6=O)nc3)CC2)n1` [CPD-633, N-(6-(dimethylamino)pyridazin-3-yl)-6-(methylamino)-2-((4-oxo-4-(4-(6-((6′-oxo-7′,8′-dihydro-6′H-spiro[cyclohexane-1,9′-pyrazino[1′,2′:1,5]pyrrolo[2,3-d]pyrimidin]-2′-yl)amnion)pyridin-3-yl)piperazin-1-yl)butyl)amino)nicotinamide], the IC50 with MCF7 cells was over 100 nM. On CDK4, the activity at 0.01 µM fell in the range of 55 to 85% and the activity at 0.1 µM is over 85%.

As to `CNc1ccc(C(=O)Nc2ccc(N(C)C)nn2)c(NCCCCC(=O)N2CCN(c3ccc(Nc4ncc5cc6n(c5n4)C4(CCCCC4)CNC6=O)nc3)CC2)n1` [CPD-634, N-(6-(dimethylamino)pyridazin-3-yl)-6-(methylamino)-2-((5-oxo-5-(4-(6-((6′-oxo-7′,8′-dihydro-6′H-spiro[cyclohexane-1,9′-pyrazino[1′,2′:1,5]pyrrolo[2,3-d]pyrimidin]-2′-yl)amino)pyridin-3-yl)piperazin-1-yl)pentyl)amino)nicotinamide], in the test on MCF7 cells, the IC50 was over 100 nM. At CDK4, the activity at 0.01 µM lay in the range of 55 to 85% and the activity at 0.1 µM is 55 to 85%.

For the compound `CNc1ccc(C(=O)Nc2ccc(N(C)C)nn2)c(NCCCCCC(=O)N2CCN(c3ccc(Nc4ncc5cc6n(c5n4)C4(CCCCC4)CNC6=O)nc3)CC2)n1` [CPD-635, N-(6-(dimethylamino)pyridazin-3-yl)-6-(methylamino)-2-((6-oxo-6-(4-(6-((6′-oxo-7′,8′-dihydro-6′H-spiro[cyclohexane-1,9′-pyrazino[1′,2′:1,5]pyrrolo[2,3-d]pyrimidin]-2′-yl)amino)pyridin-3-yl)piperazin-1-yl)hexyl)amino)nicotinamide], in the test with MCF7 cells, the IC50 was over 100 nM. Besides, on CDK4, the activity at 0.01 µM lay in the range of 55 to 85% and the activity at 0.1 µM lay in the range of 55 to 85%.

With `CNc1ccc(C(=O)Nc2ccc(N(C)C)nn2)c(NCCCCCCC(=O)N2CCN(c3ccc(Nc4ncc5cc6n(c5n4)C4(CCCCC4)CNC6=O)nc3)CC2)n1` [CPD-636, N-(6-(dimethylamino)pyridazin-3-yl)-6-(methylamino)-2-((7-oxo-7-(4-(6-((6′-oxo-7′,8′-dihydro-6′H-spiro[cyclohexane-1,9′-pyrazino[1′,2′:1,5]pyrrolo[2,3-d]pyrimidin]-2′-yl)amino)pyridin-3-yl)piperazin-1-yl)heptyl)amino)nicotinamide], in the test on MCF7 cells, the IC50 is over 100 nM. Also, on CDK4, the activity at 0.01 µM lay within 55 to 85% and the activity at 0.1 µM was 55 to 85%.

Turning to `CNc1ccc(C(=O)Nc2ccc(N(C)C)nn2)c(NCCOCCOCCC(=O)N2CCN(c3ccc(Nc4ncc5cc6n(c5n4)C4(CCCCC4)CNC6=O)nc3)CC2)n1` [CPD-639, N-(6-(dimethylamino)pyridazin-3-yl)-6-(methylamino)-2-((2-(2-(3-oxo-3-(4-(6-((6′-oxo-7′,8′-dihydro-6′H-spiro[cyclohexane-1,9′-pyrazino[1′,2′:1,5]pyrrolo[2,3-d]pyrimidin]-2′-yl)amino)pyridin-3-yl)piperazin-1-yl)propoxy)ethoxy)ethyl)amino)nicotinamide], in the test on MCF7 cells, the IC50 was over 100 nM. Besides, on CDK4, the activity at 0.01 µM was over 85% and the activity at 0.1 µM was over 85%.

One may read the IC50 as the concentration that inhibits the measured activity by half.
